Measurements from patent US11339140B2, “Compositions and methods comprising substituted 2-aminoimidazoles” (Curza Global, LLC, priority 2017, dated 2022).
Values after ≈ are worked out from the molar mass of the structure shown.

Assays:
[1] = tested on: Candida albicans; conditions: cited from earlier work
[2] = tested on: Mycobacterium tuberculosis; conditions: cited from earlier work
[3] = tested on: breast cancer; experiment: cancer-selective cell death with Zn2+; type: cell-based; conditions: caspase-independent mechanism
[4] = tested on: primary metastatic cells derived from breast cancer patients; experiment: activity against primary metastatic cells derived from breast cancer patients; type: cell-based, human; conditions: patients treated with multiple frontline chemotherapeutics
[5] = tested on: mouse mammary tumor model; experiment: mouse mammary tumor model; type: in vivo

SMILES | MIC100 against Candida albicans [1] | IC50 against Mycobacterium tuberculosis [2] | synergy with Zn2+ in inducing cancer-selective cell death [3] | efficacy against primary metastatic cells from breast cancer patients [4] | in vivo efficacy [5]
COc1ccc(Cc2nc(NC3=NC(=O)N(C)C3=O)n(C)c2Cc2ccc(O)cc2)cc1 [Naamidine A] | 0.78 µM (≈ 0.338 µg/mL) | 0.41 mg/L (≈ 0.946 µM) |  |  | 
COc1ccc(-c2c(Cc3ccccc3)[nH]/c(=N\C(=O)c3ccccc3F)n2C)cc1 [ZNA] |  |  | synergizes strongly with Zn^2+ to induce cancer-selective cell death | effective | in vivo efficacy was established
